Active and inactive are the calls of the source. No cut-off for these calls is given here.

Experiment [1] concerns the target Botulinum neurotoxin type A (Clostridium botulinum, UniProt P0DPI0). Briefly: Inhibition of Clostridium BoNT/A protease light chain.
Experiment [2] deals with Botulinum neurotoxin type A (Clostridium botulinum) (UniProt P0DPI0). The note with it: 0.67 to 18 uM.
Botulinum neurotoxin type A (Clostridium botulinum), sequence (P0DPI0 2-448 limits assumed): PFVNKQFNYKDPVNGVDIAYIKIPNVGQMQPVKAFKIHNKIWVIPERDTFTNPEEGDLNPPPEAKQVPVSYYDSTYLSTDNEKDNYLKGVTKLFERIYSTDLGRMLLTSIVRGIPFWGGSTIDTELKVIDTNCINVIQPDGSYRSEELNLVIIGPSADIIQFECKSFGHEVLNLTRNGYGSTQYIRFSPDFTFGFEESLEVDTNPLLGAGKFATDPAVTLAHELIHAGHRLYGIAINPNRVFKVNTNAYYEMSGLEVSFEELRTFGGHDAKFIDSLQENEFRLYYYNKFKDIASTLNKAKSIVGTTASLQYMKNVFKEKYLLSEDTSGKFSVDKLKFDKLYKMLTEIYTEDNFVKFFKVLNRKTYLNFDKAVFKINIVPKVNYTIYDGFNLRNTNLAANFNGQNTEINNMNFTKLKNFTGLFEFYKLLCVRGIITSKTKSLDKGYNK

Botulinum neurotoxin type A, sequence (P0DPI0 2-448 limits assumed): as above

Regarding `C=C(C)[C@@H]1CC[C@]2(COC(=O)CCC(=O)O)CC[C@]3(C)[C@H](CC[C@@H]4[C@@]5(C)CC[C@H](O)C(C)(C)[C@@H]5CC[C@]43C)[C@@H]12`, in experiment [1], the IC50 (commonly the midpoint of a concentration-inhibition curve) was found to be 1.5 µM and the Ki (as a rule, a measure of affinity in units of concentration, obtained from inhibition or displacement) came to 0.8 µM. The inhibition entry in experiment [2] is “Active”.
For the compound `C=C(C)[C@@H]1CC[C@]2(COC(=O)COc3cc(C(C)C)ccc3C)CC[C@]3(C)[C@H](CC[C@@H]4[C@@]5(C)CC[C@H](O)C(C)(C)[C@@H]5CC[C@]43C)[C@@H]12`, in experiment [1], it took 10 µM to reach half-maximal inhibition (IC50) and the Ki was 13.3 µM.
In experiment [1], `C=C(C)[C@@H]1CC[C@]2(C(=O)O)CC[C@]3(C)[C@H](CC[C@@H]4[C@@]5(C)CC[C@H](O)C(C)(C)[C@@H]5CC[C@]43C)[C@@H]12` [BETULINIC ACID] gave an IC50 of 20 µM and a Ki of 14.3 µM.
Regarding `C=C(C)[C@@H]1CC[C@]2(C(=O)O)CC[C@]3(C)[C@H](CC[C@@H]4[C@@]5(C)CCC(=O)C(C)(C)[C@@H]5CC[C@]43C)[C@@H]12` [BETUNOLIC ACID], the IC50 in experiment [1] is less than 100 µM.
The same measure, in the same setting: then `C=C(C)[C@@H]1CC[C@]2(C(=O)OC)CC[C@]3(C)[C@H](CC[C@@H]4[C@@]5(C)CC[C@H](O)C(C)(C)[C@@H]5CC[C@]43C)[C@@H]12` [METHYL BETULINATE], with less than 100 µM.

Values taken from ChEMBL document CHEMBL1759928, “Synthesis and evaluation of library of betulin derivatives against the botulinum neurotoxin A protease” (Bioorg Med Chem Lett, 2011).
